Measurements published in patent EP1285920A1, “C10 Ester sustituted taxanes as antitumor agents” (Florida State University Research Foundation, Inc., priority 2001, dated 2003).
Like-named read-outs stand apart in the source and are kept apart here.

What was measured:
blood cell populations = experiment: Effect of oral treatment on blood cell populations and body weight in the MX-1 study (Example 22); assay type: in vivo, nu/nu mice; details: mg/kg: 0499 80, 0550 73, 0611 113, 0748 200
Procedure: (§1) Antitumor compounds were administered orally in a study to investigate whether such a formulation is efficacious against the MX-1 human breast carcinoma xenograft. Antitumor compound 0499 was formulated as Solution 1 in Example 6. Antitumor compound 0550 was formulated as Solution 2 in Example 6. Antitumor compound 0611 was formulated as Solution 3 in Example 6. Antitumor compound 0748 was formulated as Solution 4 in Example 6. Other antitumor compounds were formulated similarly. The compounds were prepared in a vehicle of 90% saline, 5% Cremophor, and 5% ethanol.
(§2) Female nu/nu mice (11-12 weeks of age; implanted subcutaneously with 1 mm^3 MX-1 human breast carcinoma fragments in the flank) were sorted into one control group (n=10) and four treatment (n=6) groups (group mean tumor size of 47-49 mg). The study was terminated on Day 63.
In addition to survival and tumor regression responses, the effect of treatment on blood cell populations was assessed. The major effect of these antitumor compounds on blood cell populations was a marked reduction in the neutrophil cell number. As well, monocyte depletion correlated fairly well with neutrophil reduction for each antitumor compound. […] There was a correlation between antitumor activity and reduced neutrophil count. In general, toxicity (as determined by neutrophil depletion) and weight loss correlated with efficacy. […] Importantly, the toxicities observed with the very efficacious antitumor compounds were manageable and reversible; neutrophil count and body weight rebounded from their low points in just a few days. Table 20 summarizes the weight reduction, neutrophil and monocyte measurements on Day 4, with tumor weight reduction calculated at Day 18: Table 20

[1] = system: MX-1 human breast carcinoma; assay type: in vivo
Procedure: as §1, §2

MX-1 carcinoma = details: for Mean Score: 6 mice/group; for Complete Response: tumor not palpable at end of study; for Partial Response: tumor smaller than on Day 1
How it was run: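 Mice dosed with a single i.v. bolus (qd x 1) at each compound's MTD, formulated in 5% ethanol, 5% Cremophor, 90% isotonic saline. Study ended Day 60; complete response = tumor not palpable at study end.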

SKMES lung carcinoma = experiment: In vivo evaluation of oral administration against SKMES human lung carcinoma xenograft (Example 21); details: for % Total Response: complete or partial responses among evaluable animals; for % Total Response / MDS (n) / Toxic Deaths / Complete Response / Partial Response / Stable Disease / Survivors: mg/kg: Taxol 40, 0687 228, 0503 73; for MDS (n): mean days of survival until neoplasm reached 2.0 g, terminated Day 60; for MDS (n) / Toxic Deaths / Complete Response / Partial Response / Stable Disease / Survivors: 6 mice/group; for Toxic Deaths / Complete Response / Partial Response / Stable Disease / Survivors: number of mice; for Complete Response / Partial Response / Stable Disease / Survivors: Day 60
Procedure: Female Nu/Nu mice (6-8 weeks of age; implanted with 1 mm^3 SKMES lung carcinoma fragments in the flank) were sorted into treatment groups of six mice each. […] Treatments were administered as a single oral bolus on Day 1, and the study was terminated on Day 60.
A complete response is obtained if the tumor is not palpable at the end of the study.
The total response rate is defined as the percentage of evaluable animals (excluding deaths due to procedure or toxicity) in a group that experience complete or partial responses at the termination of the study.

[2] = system: Panc-1 pancreatic carcinoma; details: for Mean Score: tumor scoring system
Procedure: The dosing volume was 0.3 ml per 20 g mouse.
Female NCr-nude mice were implanted subcutaneously with 1 mm^3 Panc-1 pancreatic carcinoma fragments in the flank and sorted into treatment groups of six mice each. […] Dosing was initiated on Day 1. The antitumor compounds were given i.v. at an estimated maximum tolerated dose (MTD) appropriate for each agent on a qd x 1 schedule (single administration of compound). […] The vehicle was administered i.v. to control mice in Group 1 on the qd x 1 schedule.
The mean days of survival is the number of days after which a neoplasm reached a size of 1.5 g and the animal was euthanized. A complete response is obtained if the tumor shrinks to a size smaller than its size on Day 1 of the study.

A2780 ovarian carcinoma = details: for MDS (n): mean days of survival until neoplasm reached 2.0 g, terminated Day 60; for Mean Score: tumor scoring system
Procedure: Dosing was initiated on Day 1. […] Taxotere was given i.v. on a qd x 1 schedule at a dose of 70 mg/kg. […] The study was terminated on Day 60. Treatment groups are detailed in Table 7.

[3] = Day 4, vs vehicle, single oral bolus
[4] = number of mice, single oral bolus Day 1, mg/kg: 0499 80, 0550 73, 0611 113, 0748 200, 6 mice/group, Day 63
[5] = MX-1, i.v. qd x 1, six mice per group
[6] = i.v. qd x 1 at MTD, Day 60, doses as in E17
[7] = number of 6 mice, tumor did not reach 2.0 g by end of study, i.v. qd x 1 at MTD, Day 60, doses as in E17
[8] = number of 6 mice, i.v. qd x 1 at MTD, Day 60, doses as in E17
[9] = number of 6 mice, i.v. qd x 1 at MTD, Day 60, mg/kg: Taxol 36 (split dose), 0503 72.6, 0536 49, 0663 159, 0670 123, 0687 159, 0706 108, 0908 159, 0947 76.9, 0951 72.6, 0983 67.4, 0999 49, 1003 49, 1011 108
[10] = number of mice, Taxol 15 mg/kg i.p. qd x 5, 6 mice, Day 63
[11] = number of mice, i.v. qd x 1, mg/kg: Taxol 24, 0854 46.6, 1011 107.6, 6 mice/group, Day 63
[12] = i.v. qd x 1 at estimated MTD (Taxol 24 mg/kg, Taxotere 70 mg/kg, 0983 72.6 mg/kg), 5 mice/group (Taxotere 6)
[13] = number of mice, Taxol i.p. qd x 5, 15 mg/kg daily, 5 mice
[14] = number of mice, i.v. qd x 1 at estimated MTD (Taxol 24 mg/kg, Taxotere 70 mg/kg, 0983 72.6 mg/kg), 5 mice/group (Taxotere 6)
[15] = number of mice, i.v. qd x 1 at estimated MTD (Taxol 24 mg/kg, Taxotere 70 mg/kg, 0983 72.6 mg/kg), 5 mice/group (Taxotere 6), Day 60

Which results are given for `CCC(=O)O[C@H]1C(=O)[C@@]2(C)[C@H]([C@H](OC(=O)c3ccccc3)[C@]3(O)C[C@H](OC(=O)[C@H](O)[C@H](C=C(C)C)NC(=O)OC(C)(C)C)C(C)=C1C3(C)C)[C@]1(OC(C)=O)CO[C@@H]1C[C@@H]2O` [Compound 0499]?
% Reduction (Monocytes) (blood cell populations; [3]): 24.0%; % Reduction (Neutrophils) (blood cell populations; [3]): 91.6%; Monocytes (K/µL) (blood cell populations; Day 4, single oral bolus Day 1): 0.073 K/µL; Neutrophils (K/µL) (blood cell populations; Day 4, single oral bolus Day 1): 0.077 K/µL; Maximum Weight Loss (Day) (blood cell populations; body weight, day of maximum in parentheses in the cell, single oral bolus Day 1): -11.4% (7); complete tumor regressions ([1]; MX-1, single oral bolus Day 1, six mice per group (0611: five evaluable), ended Day 63): two; Mean Day of Survival (n) ([1]; days until tumor reached 1.5 g, single oral bolus Day 1, mg/kg: 0499 80, 0550 73, 0611 113, 0748 200, 6 mice/group, terminated Day 63): 56.6 ± 2.1 (3); Toxic Deaths ([1]; number of mice, single oral bolus Day 1, mg/kg: 0499 80, 0550 73, 0611 113, 0748 200, 6 mice/group): 0; Complete Response [1, 4]: 2; Partial Response [1, 4]: 0; Stable Disease [1, 4]: 1; % Reduction (Weight) ([1]; po, 432 h): 100.0%

Which results are given for `CC(=O)O[C@H]1C(=O)[C@@]2(C)[C@H]([C@H](OC(=O)c3ccccc3)[C@]3(O)C[C@H](OC(=O)[C@H](O)[C@@H](NC(=O)c4ccccc4)c4ccccc4)C(C)=C1C3(C)C)[C@]1(OC(C)=O)CO[C@@H]1C[C@@H]2O` [Taxol, paclitaxel, reference compound]?
MDS (MX-1 carcinoma; MX-1, Taxol 36 mg/kg i.v. qd x 1, one animal, calculated, tumor 2.0 g): 27.8 days; antitumor activity / tumor response (MX-1 carcinoma; MX-1, i.v. qd x 1, Day 60): moderate anti-tumor activity; Stable Disease (MX-1 carcinoma; [5]): One; Toxic Deaths (MX-1 carcinoma; [5]): four; Mean Score (MX-1 carcinoma; [6]): 1.2 ± 0.8; tolerability (MX-1 carcinoma; mouse, in vivo, iv): not well tolerated; Stable Disease (MX-1 carcinoma; [7]): 1; Complete Response (MX-1 carcinoma; [8]): 0; Partial Response (MX-1 carcinoma; [8]): 0; Survivors (MX-1 carcinoma; [8]): 1; Toxic Deaths (MX-1 carcinoma; [9]): 0; antitumor activity (SKMES lung carcinoma; SKMES, single oral bolus Day 1, 0687 228 mg/kg, 0503 73 mg/kg, Taxol 40 mg/kg): no statistically significant response; % Total Response (SKMES lung carcinoma; single oral bolus Day 1): 0%; MDS (n) (SKMES lung carcinoma; single oral bolus Day 1): 13.2 ± 1.4 (6) days; Toxic Deaths (SKMES lung carcinoma; single oral bolus Day 1): 0; Complete Response (SKMES lung carcinoma; single oral bolus Day 1): 0; Partial Response (SKMES lung carcinoma; single oral bolus Day 1): 0; Stable Disease (SKMES lung carcinoma; single oral bolus Day 1): 0; Survivors (SKMES lung carcinoma; single oral bolus Day 1): 0; MDS ([2]; Panc-1 (Example 18), Taxol 24 mg/kg i.v. qd x 1, four mice, tumor 1.5 g, ended Day 63): 34.7 days; Toxic Deaths ([2]; Panc-1 (Example 18), Taxol i.p. 15 mg/kg qd x 5 (Group 3), six animals): four; Stable Disease ([2]; Panc-1 (Example 18), i.v. qd x 1, Taxol 24 mg/kg split, six mice per group): one; toxic deaths / toxic lethalities ([2]; Panc-1 (Example 18), i.v. qd x 1, six mice per group): One; MDS (n) ([2]; mean days of survival until neoplasm reached 1.5 g, i.v. qd x 1, mg/kg: Taxol 24, 0854 46.6, 1011 107.6, 6 mice/group, terminated Day 63): 34.7 ± 3.4 days; Toxic Deaths ([2]; number of mice, Taxol 15 mg/kg i.p. qd x 5, 6 mice): 4; Complete Response [2, 10]: 0; Partial Response [2, 10]: 1; Stable Disease [2, 10]: 0; Survivors [2, 10]: 1; Toxic Deaths ([2]; number of mice, i.v. qd x 1, mg/kg: Taxol 24, 0854 46.6, 1011 107.6, 6 mice/group): 1; Complete Response [2, 11]: 0; Partial Response [2, 11]: 0; Stable Disease [2, 11]: 1; Survivors [2, 11]: 1; Mean Score ([2]; Taxol 15 mg/kg i.p. qd x 5, 6 mice): 1.2 ± 1.2; Mean Score ([2]; i.v. qd x 1, mg/kg: Taxol 24, 0854 46.6, 1011 107.6, 6 mice/group): 2.2 ± 0.8; toxicity (A2780 ovarian carcinoma; A2780, Taxol i.p. 15 mg/kg qd x 5 (Group 3)): highly toxic; mice succumbed to drug-related side effects (A2780 ovarian carcinoma; A2780, Taxol i.p. 15 mg/kg qd x 5 (Group 3), five mice): four; antitumor activity (A2780 ovarian carcinoma; A2780, i.v. qd x 1): moderately efficacious; survival extension compared to Group 1 controls (A2780 ovarian carcinoma; A2780, i.v. qd x 1): 87%; MDS (A2780 ovarian carcinoma; A2780, i.v. qd x 1 (compounds estimated MTD; Taxol 24 mg/kg split; Taxotere 70 mg/kg), days until tumor 2.0 g, ended Day 60): 21.9 days; Stable Disease (A2780 ovarian carcinoma; A2780, i.v. qd x 1, five mice per group): One; MDS (n) (A2780 ovarian carcinoma; [12]): 21.9 ± 5.5 (5) days; Complete Response (A2780 ovarian carcinoma; [13]): 0; Partial Respons (A2780 ovarian carcinoma; [13]): 0; Stable Disease (A2780 ovarian carcinoma; [13]): 0; Survivors (A2780 ovarian carcinoma; [13]): 0; Toxic Deaths (A2780 ovarian carcinoma; [13]): 4; Toxic Deaths (A2780 ovarian carcinoma; [14]): 0; Complete Response (A2780 ovarian carcinoma; [15]): 0; Partial Respons (A2780 ovarian carcinoma; [15]): 0; Stable Disease (A2780 ovarian carcinoma; [15]): 0; Survivors (A2780 ovarian carcinoma; [15]): 1; Mean Score (A2780 ovarian carcinoma; Taxol i.p. qd x 5, 15 mg/kg daily, 5 mice): 0.6 ± 0.6; Mean Score (A2780 ovarian carcinoma; [12]): 1.8 ± 0.4

Which results are given for `CCC(=O)O[C@H]1C(=O)[C@@]2(C)[C@H]([C@H](OC(=O)c3ccccc3)[C@]3(O)C[C@H](OC(=O)[C@H](O)[C@@H](NC(=O)OC(C)(C)C)c4ccccn4)C(C)=C1C3(C)C)[C@]1(OC(C)=O)CO[C@@H]1C[C@@H]2O` [Compound 0503]?
treated animals with durable complete responses and partial responses (MX-1 carcinoma; MX-1, single i.v. MTD): 100%; Mean Score (MX-1 carcinoma; [6]): 9.7 ± 0.2; Stable Disease (MX-1 carcinoma; [7]): 0; Complete Response (MX-1 carcinoma; [8]): 4; Partial Response (MX-1 carcinoma; [8]): 2; Survivors (MX-1 carcinoma; [8]): 6; Toxic Deaths (MX-1 carcinoma; [9]): 0; complete responses (SKMES lung carcinoma; SKMES, 0503 73 mg/kg single oral bolus, six mice): three; % Total Response (SKMES lung carcinoma; single oral bolus Day 1): 50.0%; MDS (n) (SKMES lung carcinoma; single oral bolus Day 1): 29.8 ± 3.6 (3) days; Toxic Deaths (SKMES lung carcinoma; single oral bolus Day 1): 0; Complete Response (SKMES lung carcinoma; single oral bolus Day 1): 3; Partial Response (SKMES lung carcinoma; single oral bolus Day 1): 0; Stable Disease (SKMES lung carcinoma; single oral bolus Day 1): 0; Survivors (SKMES lung carcinoma; single oral bolus Day 1): 3; antitumor activity (A2780 ovarian carcinoma; A2780, i.v. qd x 1): did not cause any complete responses, partial responses, or cases of stable disease; MDS (n) (A2780 ovarian carcinoma; [12]): 32.4 ± 4.7 (5) days; Toxic Deaths (A2780 ovarian carcinoma; [14]): 0; Complete Response (A2780 ovarian carcinoma; [15]): 0; Partial Respons (A2780 ovarian carcinoma; [15]): 0; Stable Disease (A2780 ovarian carcinoma; [15]): 0; Survivors (A2780 ovarian carcinoma; [15]): 0; Mean Score (A2780 ovarian carcinoma; [12]): 2.8 ± 0.2
